Experimental data from patent US20070249670A1, “Glycogen Phosphorylase Inhibitor Compounds and Pharmaceutical Compositions Thereof” (SMITHKLINE BEECHAM CORPORATION, priority 2004, published 2007).

Each compound was assayed against T1, human liver glycogen phosphorylase a (HLGPa) (Homo sapiens, UniProt P06737) (assay: Human liver glycogen phosphorylase a enzymatic activity assay (coupled, fluorescent resorufin readout, with and without 10 mM glucose)). Settings: human liver glycogen phosphorylase a; table does not say whether with or without 10 mM glucose.
T1 construct: creating a full-length cDNA fused at the 5′ end to codons for methionine-glycine-alanine-histidine; 6xHis tag (leader Met-Gly-Ala-His6-Gly-Gly) (N); made in house; host or cells: E. coli (bacterial expression plasmid pTXK1007LTev)
T1 sequence (P06737 2-847 limits assumed): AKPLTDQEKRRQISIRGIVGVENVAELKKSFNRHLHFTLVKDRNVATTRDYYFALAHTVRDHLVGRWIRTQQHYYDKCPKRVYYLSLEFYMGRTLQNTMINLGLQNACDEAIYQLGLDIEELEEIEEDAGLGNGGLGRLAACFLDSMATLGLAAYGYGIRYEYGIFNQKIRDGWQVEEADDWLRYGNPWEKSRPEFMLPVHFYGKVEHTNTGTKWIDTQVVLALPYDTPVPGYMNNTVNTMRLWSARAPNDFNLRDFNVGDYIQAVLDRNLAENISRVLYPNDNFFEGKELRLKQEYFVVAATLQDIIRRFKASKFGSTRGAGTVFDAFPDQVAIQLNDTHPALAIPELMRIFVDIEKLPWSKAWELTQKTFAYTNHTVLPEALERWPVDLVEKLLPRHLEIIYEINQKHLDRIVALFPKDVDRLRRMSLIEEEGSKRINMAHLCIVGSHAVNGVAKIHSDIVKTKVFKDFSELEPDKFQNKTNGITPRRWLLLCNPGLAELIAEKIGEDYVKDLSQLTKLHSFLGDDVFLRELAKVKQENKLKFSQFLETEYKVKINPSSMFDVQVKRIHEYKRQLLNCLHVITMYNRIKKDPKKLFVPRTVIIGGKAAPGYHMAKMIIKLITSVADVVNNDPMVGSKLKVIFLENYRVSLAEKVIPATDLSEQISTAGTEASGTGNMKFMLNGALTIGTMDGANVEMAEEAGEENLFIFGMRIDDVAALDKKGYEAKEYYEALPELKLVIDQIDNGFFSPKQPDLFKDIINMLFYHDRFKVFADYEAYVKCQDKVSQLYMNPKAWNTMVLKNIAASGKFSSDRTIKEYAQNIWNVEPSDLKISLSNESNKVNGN
Format: biochemical

| Structure (SMILES) | IC50 [nM] |
| --- | --- |
| CCCC(CCC)(NC(=O)c1cc2ccccc2cc1NC(=O)Nc1c(Cl)cccc1Cl)C(=O)O [Example 316, N-{[3-({[(2,6-dichlorophenyl)amino]carbonyl}amino)-2-naphthalenyl]carbonyl}-2-propylnorvaline] | 360 |
| CCCc1cc(C)c(NC(=O)Nc2cc(Cl)cnc2C(=O)NC2(C(=O)O)CCCCCCC2)c(C)c1 [Example 320, 1-({[5-Chloro-3-({[(2,6-dimethyl-4-propylphenyl)amino]carbonyl}amino)-2-pyridinyl]carbonyl}amino)cyclooctanecarboxylic acid] | 38 |
| O=C(Nc1c(Cl)cc(Cl)cc1Cl)Nc1c(C(=O)N[C@H](C(=O)O)C2CCCCC2)oc2cc(Br)ccc12 [Example 326, (2S)-({[6-Bromo-3-({[(2,4,6-trichlorophenyl)amino]carbonyl}amino)-1-benzofuran-2-yl]carbonyl}amino)(cyclohexyl)ethanoic acid] | 7390 |
| O=C(Nc1c(Cl)cccc1Cl)Nc1c(C(=O)N[C@H](C(=O)O)C2CCCCC2)oc2cc(Br)ccc12 [Example 327, (2S)-({[6-Bromo-3-({[(2,6-dichlorophenyl)amino]carbonyl}amino)-1-benzofuran-2-yl]carbonyl}amino)(cyclohexyl)ethanoic acid] | 9870 |
| O=C(O)CCN(Cc1ccccc1)C(=O)c1cc2ccccc2cc1NC(=O)Nc1c(Cl)cccc1Cl [Example 331, N-{[3-({[(2,6-dichlorophenyl)amino]carbonyl}amino)-2-naphthalenyl]carbonyl}-N-(phenylmethyl)-beta-alanine] | 2180 |
| O=C(O)CN(Cc1ccccc1)C(=O)c1cc2ccccc2cc1NC(=O)Nc1c(Cl)cc(Cl)cc1Cl [Example 332, N-(phenylmethyl)-N-{[3-({[(2,4,6-trichlorophenyl)amino]carbonyl}amino)-2-naphthalenyl]carbonyl}glycine] | 4350 |
| O=C(Nc1cc2ccccc2cc1C(=O)N1CCCC(C(=O)O)C1)Nc1c(Cl)cccc1Cl (centres unmarked) [Example 333, 1-{[3-({[(2,6-Dichlorophenyl)amino]carbonyl}amino)-2-naphthalenyl]carbonyl}-3-piperidinecarboxylic acid] | 9270 |
| Cc1cccc(C)c1NC(=O)Nc1cc2ccccc2cc1C(=O)N1CCC[C@H]1C(=O)O [Example 334, 1-{[3-({[(2,6-dimethylphenyl)amino]carbonyl}amino)-2-naphthalenyl]carbonyl}-L-proline] | 420 |
| Cc1cc(C)c(NC(=O)Nc2cc3ccccc3cc2C(=O)N[C@H](CC(=O)O)c2ccccc2)c(C)c1 [Example 336, (3R)-3-phenyl-3-({[3-({[(2,4,6-trimethylphenyl)amino]carbonyl}amino)-2-naphthalenyl]carbonyl}amino)propanoic acid] | 610 |
| Cc1cc(C)c(NC(=O)Nc2cc3ccccc3cc2C(=O)N[C@H](CC(=O)O)C(C)C)c(C)c1 [Example 339, (3R)-4-methyl-3-({[3-({[(2,4,6-trimethylphenyl)amino]carbonyl}amino)-2-naphthalenyl]carbonyl}amino)pentanoic acid] | 1560 |
| Cc1cc(C)c(NC(=O)Nc2cc3ccccc3cc2C(=O)N[C@H](c2nnn[nH]2)C(C)C)c(C)c1 [Example 340, N-[(1S)-2-methyl-1-(1H-tetrazol-5-yl)propyl]-3-({[(2,4,6-trimethylphenyl)amino]carbonyl}amino)-2-naphthalenecarboxamide] | 340 |
| Cc1cc(C)c(NC(=O)Nc2cc3ccccc3cc2C(=O)N[C@H](C#N)C2CCC(F)(F)CC2)c(C)c1 [Example 342, N—[(S)-cyano(4,4-difluorocyclohexyl)methyl]-3-({[(2,4,6-trimethylphenyl)amino]carbonyl}amino)-2-naphthalenecarboxamide] | 8600 |

Results, then the compound that gave them:

| IC50 [nM] | Structure (SMILES) |
| --- | --- |
| 920 | Cc1cc(C)c(NC(=O)Nc2cc(Cl)cnc2C(=O)N[C@H](C(=O)O)C2CCCCC2)c(C)c1 [Example 317, (2S)-({[5-chloro-3-({[(2,4,6-trimethylphenyl)amino]carbonyl}amino)-2-pyridinyl]carbonyl}amino)(cyclohexyl)ethanoic acid] |
| 470 | Cc1cc(C)c(NC(=O)Nc2cc(Cl)cnc2C(=O)NC2(C(=O)O)CCCCCC2)c(C)c1 [Example 319, 1-({[5-chloro-3-({[(2,4,6-trimethylphenyl)amino]carbonyl}amino)-2-pyridinyl]carbonyl}amino)cycloheptanecarboxylic acid] |
| 150 | Cc1cc(C)c(NC(=O)Nc2cc(-c3ccccc3)cnc2C(=O)N[C@H](C(=O)O)C2CCCCC2)c(C)c1 [Example 321, (2S)-Cyclohexyl({[5-phenyl-3-({[(2,4,6-trimethylphenyl)amino]carbonyl}amino)-2-pyridinyl]carbonyl}amino)ethanoic acid] |
| 83 | COc1ccc(-c2cnc(C(=O)N[C@H](C(=O)O)C3CCCCC3)c(NC(=O)Nc3c(C)cc(C)cc3C)c2)cc1 [Example 322, (2S)-Cyclohexyl({[5-[4-(methyloxy)phenyl]-3-({[(2,4,6-trimethylphenyl)amino]carbonyl}amino)-2-pyridinyl]carbonyl}amino)ethanoic acid] |
| 170 | COc1ccc(-c2cnc(C(=O)N[C@H](C(=O)O)[C@@H](C)OC(C)(C)C)c(NC(=O)Nc3c(C)cc(C)cc3C)c2)cc1 [Example 323, O-(1,1-dimethylethyl)-N-{[5-[4-(methyloxy)phenyl]-3-({[(2,4,6-trimethylphenyl)amino]carbonyl}amino)-2-pyridinyl]carbonyl}-L-threonine] |
| 470 | Cc1cc(C)c(NC(=O)Nc2cc(-c3ccc(F)c(F)c3)cnc2C(=O)N[C@H](C(=O)O)[C@@H](C)OC(C)(C)C)c(C)c1 [Example 324, N-{[5-(3,4-Difluorophenyl)-3-({[(2,4,6-trimethylphenyl)amino]carbonyl}amino)-2-pyridinyl]carbonyl}-O-(1,1-dimethylethyl)-L-threonine] |
| 31 | COc1ccc(-c2cnc(C(=O)NC3(C(=O)O)CCCCCC3)c(NC(=O)Nc3c(C)cc(C)cc3C)c2)cc1 [Example 325, 1-({[5-[4-(methyloxy)phenyl]-3-({[(2,4,6-trimethylphenyl)amino]carbonyl}amino)-2-pyridinyl]carbonyl}amino)cycloheptanecarboxylic acid] |
| 14400 | Cc1cc(C)c(NC(=O)Nc2cc3ccccc3cc2C(=O)NCC2CCCCC2)c(C)c1 [Example 330, N-(cyclohexylmethyl)-3-({[(2,4,6-trimethylphenyl)amino]carbonyl}amino)-2-naphthalenecarboxamide] |
| 5260 | Cc1cc(C)c(NC(=O)Nc2cc3ccccc3cc2C(=O)N[C@H](CC(=O)OC(C)(C)C)C2CCCCC2)c(C)c1 [Example 337, 1,1-dimethylethyl (3R)-3-cyclohexyl-3-({[3-({[(2,4,6-trimethylphenyl)amino]carbonyl}amino)-2-naphthalenyl]carbonyl}amino)propanoate] |
| 2130 | Cc1cc(C)c(NC(=O)Nc2cc3ccccc3cc2C(=O)N[C@H](CC(=O)O)C2CCCCC2)c(C)c1 [Example 338, (3R)-3-cyclohexyl-3-({[3-({[(2,4,6-trimethylphenyl)amino]carbonyl}amino)-2-naphthalenyl]carbonyl}amino)propanoic acid] |
| 130 | O=C(Nc1cc2ccccc2cc1C(=O)N[C@H](C(=O)O)C1CCCC1)Nc1c(Cl)cc(Cl)cc1Cl [Example 343, (2S)-cyclopentyl({[3-({[(2,4,6-trichlorophenyl)amino]carbonyl}amino)-2-naphthalenyl]carbonyl}amino)ethanoic acid] |
